Data taken from PubChem BioAssay (NCI).
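Where inhibition never reached the appropriate level, the endpoint shown equals the highest concentration tested. Otherwise, values were interpolated linearly from a five-concentration, 48-hour dose response in 96-well plates. GI50: concentration for 50% inhibition of growth. Definition used: TGI = concentration required for complete inhibition of growth.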

How the values were obtained:
Test in all cases: NCI tumour cell line growth inhibition, 48 h
[1] = tested on: T-47D breast
[2] = tested on: DU-145 prostate
[3] = tested on: SK-MEL-2 melanoma
[4] = tested on: HL-60(TB) leukemia
[5] = tested on: KM12 colon
[6] = tested on: CAKI-1 renal
[7] = tested on: OVCAR-4 ovarian
[8] = tested on: NCI-H226 lung
[9] = tested on: ACHN renal
[10] = tested on: SW-620 colon
[11] = tested on: SK-OV-3 ovarian
[12] = tested on: HCT-15 colon
[13] = tested on: SK-MEL-28 melanoma
[14] = tested on: CCRF-CEM leukemia
[15] = tested on: UACC-62 melanoma
[16] = tested on: HT29 colon
[17] = tested on: K-562 leukemia
[18] = tested on: MDA-MB-468 breast
[19] = tested on: NCI-H23 lung
[20] = tested on: BT-549 breast
[21] = tested on: SK-MEL-5 melanoma
[22] = tested on: A549 NSCLC
[23] = tested on: NCI/ADR-RES ovarian
[24] = tested on: MDA-MB-435
[25] = tested on: OVCAR-5 ovarian
[26] = tested on: MALME-3M melanoma
[27] = tested on: RXF 393 renal
[28] = tested on: SF-295 CNS
[29] = tested on: SF-539 CNS
[30] = tested on: HOP-62 NSCLC
[31] = tested on: SF-268 CNS
[32] = tested on: LOX IMVI melanoma
[33] = tested on: IGROV1 ovarian
[34] = tested on: COLO 205 colon
[35] = tested on: MCF7 breast
[36] = tested on: HS 578T breast
[37] = tested on: HCT-116 colon
[38] = tested on: RPMI-8226 leukemia
[39] = tested on: UACC-257 melanoma
[40] = tested on: PC-3 prostate
[41] = tested on: SNB-19 CNS
[42] = tested on: A498 renal
[43] = tested on: HCC-2998 colon
[44] = tested on: OVCAR-3 ovarian
[45] = tested on: NCI-H522 lung
[46] = tested on: SN12C renal
[47] = tested on: SNB-75 CNS
[48] = tested on: HOP-92 NSCLC
[49] = tested on: EKVX NSCLC
[50] = tested on: 786-0 renal
[51] = tested on: U251 CNS
[52] = tested on: M14 melanoma
[53] = tested on: OVCAR-8 ovarian
[54] = tested on: TK-10 renal
[55] = tested on: NCI-H460 lung
[56] = tested on: MOLT-4 leukemia

With `COC(=O)C(Cc1ccc(O)c(O)c1)NC(=O)C(CSC/C=C(\C)CCCC(C)CCCC(C)CCCC(C)C)NC(C)=O` (configuration not stated) the GI50 [1] was 7.78 µM, the TGI [1] was 45.3 µM and the GI50 [2] was > 100 µM. For the same compound, the TGI [2] was > 100 µM, the GI50 [3] was 25.1 µM and the TGI [3] was 90 µM. The GI50 [4] was 6.67 µM, the TGI [4] was 41.5 µM and the GI50 [5] was 9.05 µM. For the same compound, the TGI [5] was > 100 µM, the GI50 [6] was 31 µM and the TGI [6] was > 100 µM. For the same compound, the GI50 [7] was 25.6 µM, the TGI [7] was > 100 µM and the GI50 [8] was 16.2 µM. The TGI [8] was > 100 µM, the GI50 [9] was 16.5 µM and the TGI [9] was 42.7 µM. For the same compound, the GI50 [10] was 11.4 µM, the TGI [10] was > 100 µM and the GI50 [11] was 17.5 µM. For the same compound, the TGI [11] was 43.2 µM, the GI50 [12] was 4.45 µM and the TGI [12] was > 100 µM. For the same compound, the GI50 [13] was 49.5 µM, the TGI [13] was > 100 µM and the GI50 [14] was 3.84 µM. The TGI [14] was > 100 µM, the GI50 [15] was 17.1 µM and the TGI [15] was 74.8 µM. For the same compound, the GI50 [16] was 9.19 µM, the TGI [16] was > 100 µM and the GI50 [17] was 8.06 µM. For the same compound, the TGI [17] was > 100 µM, the GI50 [18] was 16.9 µM and the TGI [18] was > 100 µM. The GI50 [19] was 20 µM, the TGI [19] was 64.2 µM and the GI50 [20] was 1.36 µM. The TGI [20] was 3 µM, the GI50 [21] was 28 µM and the TGI [21] was > 100 µM. The GI50 [22] was 11.2 µM, the TGI [22] was > 100 µM and the GI50 [23] was 33.3 µM. For the same compound, the TGI [23] was > 100 µM, the GI50 [24] was 41.5 µM and the TGI [24] was > 100 µM. The GI50 [25] was 29.5 µM, the TGI [25] was > 100 µM and the GI50 [26] was 49.1 µM. For the same compound, the TGI [26] was > 100 µM, the GI50 [27] was 16.1 µM and the TGI [27] was 44.5 µM. It also gave a GI50 [28] of 18.3 µM, a TGI [28] of 43.8 µM and a GI50 [29] of 9.48 µM. The TGI [29] was 26.1 µM, the GI50 [30] was 13.6 µM and the TGI [30] was 44.4 µM. The GI50 [31] was 26.7 µM, the TGI [31] was > 100 µM and the GI50 [32] was 10.5 µM. For the same compound, the TGI [32] was > 100 µM, the GI50 [33] was 10.7 µM and the TGI [33] was > 100 µM. The GI50 [34] was 15.5 µM, the TGI [34] was > 100 µM and the GI50 [35] was 13.5 µM. For the same compound, the TGI [35] was > 100 µM, the GI50 [36] was 27.7 µM and the TGI [36] was > 100 µM. It also gave a GI50 [37] of 1.33 µM, a TGI [37] of 2.81 µM and a GI50 [38] of 4.06 µM. The TGI [38] was > 100 µM, the GI50 [39] was 69.2 µM and the TGI [39] was > 100 µM. It also gave a GI50 [40] of 3 µM, a TGI [40] of 14.2 µM and a GI50 [41] of 3.81 µM. For the same compound, the TGI [41] was 48.4 µM, the GI50 [42] was 30.3 µM and the TGI [42] was > 100 µM. The GI50 [43] was 18 µM, the TGI [43] was > 100 µM and the GI50 [44] was 5.79 µM. The TGI [44] was > 100 µM, the GI50 [45] was 1.82 µM and the TGI [45] was 3.6 µM. The GI50 [46] was 30.9 µM, the TGI [46] was > 100 µM and the GI50 [47] was 39.3 µM. The TGI [47] was > 100 µM, the GI50 [48] was 11.9 µM and the TGI [48] was 30.1 µM. For the same compound, the GI50 [49] was 30.3 µM, the TGI [49] was > 100 µM and the GI50 [50] was 1.29 µM. It also gave a TGI [50] of 2.76 µM, a GI50 [51] of 2.84 µM and a TGI [51] of 11.2 µM. It also gave a GI50 [52] of 2.78 µM, a TGI [52] of 12.5 µM and a GI50 [53] of 7.95 µM. It also gave a TGI [53] of 32.7 µM, a GI50 [54] of 22.3 µM and a TGI [54] of 93.8 µM. The GI50 [55] was 4.27 µM, the TGI [55] was > 100 µM and the GI50 [56] was 3.34 µM. The TGI [56] was > 100 µM.
